Data taken from publication PMC6399351, “Cationic Intrinsically Disordered Antimicrobial Peptides (CIDAMPs) Represent a New Paradigm of Innate Defense with a Potential for Novel Anti-Infectives” (Scientific Reports, 2019).
≈ marks a conversion by molar mass, not a printed value. Where “and” joins values, the source holds several entries; their conditions need not be identical. Equal values may be shown once. Read-outs that look alike come from different tables or passages of the source. Square brackets hold non-standard residues; d marks the D form. Ends that are not written are not given here. Peptide text beside a SMILES is read from it. * marks the point of attachment. Palmitoyl = CCCCCCCCCCCCCCCC(=O)*

Assays:
[1] = tested on: Acinetobacter baumannii ATCC 19606; experiment: CO-ADD MIC, broth microdilution (CLSI); type: cell-based; details: Mueller–Hinton broth, 5 × 10^5 CFU/mL, 18 h 37 °C, by CO-ADD
Description: (§1) They were defined as the lowest peptide
(§2) Further details of the screening

[2] = tested on: Pseudomonas aeruginosa ATCC 27853; experiment: CO-ADD MIC, broth microdilution (CLSI); type: cell-based; details: Mueller–Hinton broth, 5 × 10^5 CFU/mL, 18 h 37 °C, by CO-ADD
Description: as §1, §2

P. aeruginosa ATCC 10145 = details: CFU assay, 10 mM NaP
[3] = tested on: Cryptococcus neoformans ATCC 208821; experiment: CO-ADD MIC, antifungal assay (CLSI); type: cell-based; details: Yeast Nitrogen Base broth, 24 h 35 °C, by CO-ADD
Method: (§3) Fungi strains were cultured for 3 days on Yeast Extract-Peptone Dextrose (YPD) agar at 30 °C. A yeast suspension of 1 × 10^6 to 5 × 10^6 cells/mL (as determined by OD530) was prepared from five colonies. These stock suspensions were diluted with Yeast Nitrogen Base (YNB) broth to a final concentration of 2.5 × 10^3 CFU/mL. […] Plates were covered and incubated at 35 °C for 24 h without shaking.

[4] = tested on: Candida albicans ATCC 90028; experiment: CO-ADD MIC, antifungal assay (CLSI); type: cell-based; details: Yeast Nitrogen Base broth, 24 h 35 °C, by CO-ADD
Method: as §3

[5] = tested on: Staphylococcus aureus ATCC 43300; details: MRSA; CLSI, Mueller–Hinton broth, 5 × 10^5 CFU/mL, 18 h 37 °C, by CO-ADD
E. coli ATCC 25922 = experiment: CO-ADD MIC, broth microdilution (CLSI); type: cell-based, Escherichia coli; details: Mueller–Hinton broth, 5 × 10^5 CFU/mL, 18 h 37 °C, by CO-ADD
Description: as §1, §2

[6] = tested on: Klebsiella pneumonia ATCC 700603; details: MDR strain; CLSI, Mueller–Hinton broth, 5 × 10^5 CFU/mL, 18 h 37 °C, by CO-ADD
C. albicans ATCC 24433 = experiment: CFU assay of antimicrobial activity; type: cell-based, Candida albicans; details: 10 mM NaP
Method: Bacteria were cultivated in either brain heart infusion medium (BHI), lysogeny broth (LB) or tryptic soy broth (TSB)[88]. If not otherwise stated, bacteria were incubated under shaking conditions (37 °C at 170 rpm) or as indicated on the ATCC- or DSM-data sheets. Candida albicans was cultured for 3 days on Yeast Extract-Peptone Dextrose (YPD) agar at 30 °C and yeast suspensions at appropriate density were treated with CIDAMPs as indicated.
(§4) All purified peptides and recombinant proteins were applied using a colony forming unit (CFU) assay in different media. Bacteria were grown to early log-phase in BHI, washed either with 10 mM Na-P, pH 7.4/1% TSB or pH 5.5/1% TSB, or pH 5.5 without TSB or BHI, and adjusted to a concentration of 10^4–10^5 colony forming units (CFU)/ml. For cell number control, 100 µl aliquots were diluted 1:10, 1:100 and 1:1000 and plated in duplicates on BHI agar plates. To 100 µl aliquots of the bacteria, suspended in the respective medium (10 mM Na-P buffer pH 7,0–7,4/ 1% (w/v) TSB; 10 mM Na-P buffer pH 5,5/ 1% (w/v) TSB; 10 mM Na-P buffer pH 7,0–7,4/ 1% (w/v) TSB pH 7,0–7,4/ 0,25% (w/v) glucose; 10 mM Na-P buffer pH 5,5/ 0,25% (w/v) glucose, respectively), 10 µl of a solution of the peptide or protein (two-fold dilutions, from 300 µg/ml or 150 µg/ml down to 19 ng/ml), dissolved in 0.01% (v/v) acetic acid, were added.
(§5) Then bacteria were incubated for 2 h at ambient temperature, if not otherwise stated. 10 µl of 0.01% (v/v) acetic acid, added to 100 µl aliquots of the bacteria in the respective medium, served as negative control. From each test, 1:10 and 1:100 dilutions were generated and plated as duplicates of 100 µl aliquots on BHI agar plates. After 16 h incubation at 37 °C, CFU were counted using a colony counter (Bio Kobe, Japan) and expressed as mean of the duplicate estimation to achieve a complete dose-response curve. All experiments were performed at serial dilutions in a concentration range of 100 µg/mL −25 ng/mL for recombinant HRNR fragments and 300 or 150 µg/mL–19 ng/mL for synthetic peptides.

E. coli ATCC 11775 = experiment: CFU assay of antimicrobial activity; type: cell-based, Escherichia coli; details: 10 mM NaP, pH 5.5, 1% TSB
Method: as §4, §5

[7] = tested on: Burkholderia cepacia ATCC 25416; details: CFU assay, 10 mM NaP, pH 5.5, 0.25% glucose
[8] = tested on: Corynebacterium simulans DSM 44415; experiment: CFU assay of antimicrobial activity; type: cell-based; details: 10 mM NaP, pH 6.0, 0.25% glucose
Method: All purified peptides and recombinant proteins were applied using a colony forming unit (CFU) assay in different media. Bacteria were grown to early log-phase in BHI, washed either with 10 mM Na-P, pH 7.4/1% TSB or pH 5.5/1% TSB, or pH 5.5 without TSB or BHI, and adjusted to a concentration of 10^4–10^5 colony forming units (CFU)/ml. For cell number control, 100 µl aliquots were diluted 1:10, 1:100 and 1:1000 and plated in duplicates on BHI agar plates. […]
as §5

[9] = CFU assay, 10 mM NaP, pH 5.5, 0.25% glucose
[10] = CFU assay, 10 mM NaP, pH 5.5, 1% TSB
[11] = CFU assay, 10 mM NaP, pH 7.0, 0.25% glucose

Row | Compound | Minimal inhibitory concentration (MIC) [1] [µg/mL] | Minimal inhibitory concentration (MIC) [2] [µg/mL] | LD90 (P. aeruginosa ATCC 10145; pH 5.5, 0.25% glucose) | LD100 (P. aeruginosa ATCC 10145; pH 5.5, 0.25% glucose) | Minimal inhibitory concentration (MIC) [3] [µg/mL] | Minimal inhibitory concentration (MIC) [4] [µg/mL] | LD90 (S. aureus ATCC 6538; [9]) [µg/mL] | Minimal inhibitory concentration (MIC) [5] [µg/mL] | Minimal inhibitory concentration (MIC) (E. coli ATCC 25922) [µg/mL] | Minimal inhibitory concentration (MIC) [6] [µg/mL] | LD90 [8] [µg/mL] | LD100 [8] [µg/mL] | also measured
1 | CCCCCCCCCCCCCCCC(=O)NCC(=O)N[C@H](CCCNC(=N)N)C(=O)N[C@H](CCCNC(=N)N)C(=O)NCC(=O)NCC(=O)N[C@H](CCCNC(=N)N)C(=O)NCC(=O)NCC(=O)N[C@H](CCCNC(=N)N)C(=O)NCC(=O)N[C@H](CCCNC(=N)N)C(=O)NCC(=O)N[C@H](CCCNC(=N)N)C(=O)O [(D)-Pal-GR13] (Palmitoyl-G[dR][dR]GG[dR]GG[dR]G[dR]G[dR]-OH; C-terminus assumed) | 8 (≈ 5.02 µM) | 16 (≈ 10 µM) | 0.075 µg/mL | 0.3 µg/mL | 2 (≈ 1.26 µM) | 8 (≈ 5.02 µM) | 0.075 | 2 (≈ 1.26 µM) | 8 (≈ 5.02 µM) | ≥32 |  |  | LD99 (concentration of peptide which kills 99.0% of inoculum) (S. aureus ATCC 6538; [9]): 0.59 µg/mL; LD100 (S. aureus ATCC 6538; [9]): 75 µg/mL
2 | GRHGSGLGHSSSHGQHGSGSGRSSSRGPY [HR 1-17] |  |  | 0.038 µg/mL and 0.075 µg/mL | 0.15 µg/mL and 0.3 µg/mL |  |  |  |  |  |  |  |  | LD90 (P. aeruginosa ATCC 10145; pH 5.5, 1% TSB): 0.59 µg/mL; LD100 (P. aeruginosa ATCC 10145; pH 5.5, 1% TSB): 18.75 µg/mL; LD90 (S. aureus ATCC 6538; [10]): >300 µg/mL; LD100 (S. aureus ATCC 6538; [10]): >300 µg/mL; LD90 (C. albicans ATCC 24433; pH 5.5, 0.25% glucose): 18.8 µg/mL; LD100 (C. albicans ATCC 24433; pH 5.5, 0.25% glucose): 9.38 µg/mL; LD90 (C. albicans ATCC 24433; pH 5.5, 1% TSB): 18.8 µg/mL; LD100 (C. albicans ATCC 24433; pH 5.5, 1% TSB): 150 µg/mL; LD90 (E. coli ATCC 11775): >300 µg/mL; LD100 (E. coli ATCC 11775): >300 µg/mL; LD90 [7]: >300 µg/mL; LD100 [7]: >300 µg/mL
3 | GRRGGRGGRGRGR [GR13] | >32 | >32 |  |  | >32 | >32 | 75 | >32 | >32 | >32 |  |  | LD90 (S. aureus ATCC 6538; [11]): 75 µg/mL
4 | GRRGSGLGRSSSRGGRGSGSGR [HR 1-18,4H-4R] | >32 | >32 |  | 0.15 µg/mL | >32 | >32 | 150 | >32 | >32 | >32 |  |  | LD100 (S. aureus ATCC 6538; [9]): > 300 µg/mL; LD100 (S. aureus ATCC 6538; [11]): > 300 µg/mL; max.killing (S. aureus ATCC 6538; [11]): 98.8%
5 | HTQNSSSGQAASSHEQAR [FLG684-701] |  |  | > 300 µg/mL | > 300 µg/mL |  |  |  |  |  |  | > 150 | > 150 | 
6 | QGSHHEQSVNRSGHSGSHHSHTTSQGR [FLG528-554] |  |  | 0.15 µg/mL | 0.59 µg/mL |  |  |  |  |  |  | > 150 | > 150 | activity against S. aureus ATCC 6538 (S. aureus ATCC 6538; at concentrations <60 µM (data not shown)): lack activity
7 | QSGTHHAENSSGGQAASSHEQAR [FLG2301-2323] |  |  | > 300 µg/mL | 300 µg/mL |  |  |  |  |  |  | > 150 | > 150 | 
